Results: patent US20260274829A1, “NEW E3 UBIQUITIN LIGASE LIGAND, PROTEIN DEGRADATION AGENT AND USE THEREOF” (GLUETACS THERAPEUTICS (SHANGHAI) CO., LTD., priority 2023, published 2026)

Biological target: T1, human Cereblon WT GST-tagged protein (Homo sapiens, UniProt Q96SW2)
T1 construct: purchased CISBIO 64BDCRBNPEH
Experiment: CRBN binding, HTRF CEREBLON BINDING kit
Conditions: CRBN binding, HTRF CEREBLON BINDING kit
Procedure, shortened: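 Binding inhibition was calculated from the 665/620 nm emission ratios, with blank wells and solvent wells as references. Test compounds competed for GST-tagged human Cereblon WT against a Thalidomide-Re reagent paired with GST Eu antibody. Plates were sealed and held at room temperature for 3 hours before the HTRF read.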

T1 sequence (Q96SW2 whole entry): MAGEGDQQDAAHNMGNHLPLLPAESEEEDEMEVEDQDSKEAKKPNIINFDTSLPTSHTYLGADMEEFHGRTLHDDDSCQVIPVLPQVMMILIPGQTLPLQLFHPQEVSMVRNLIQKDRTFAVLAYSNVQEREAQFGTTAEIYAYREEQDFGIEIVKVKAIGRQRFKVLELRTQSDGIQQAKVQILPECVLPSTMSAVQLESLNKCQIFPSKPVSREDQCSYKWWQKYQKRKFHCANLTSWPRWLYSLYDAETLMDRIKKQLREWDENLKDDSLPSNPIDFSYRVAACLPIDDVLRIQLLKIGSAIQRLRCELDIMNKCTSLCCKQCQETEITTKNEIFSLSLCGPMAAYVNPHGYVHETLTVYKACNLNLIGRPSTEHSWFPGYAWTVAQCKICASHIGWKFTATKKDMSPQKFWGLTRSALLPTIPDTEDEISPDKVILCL

Compound	IC50 [nM]
CN(Cc1cncc(N2CCC(=O)NC2=O)c1)C1CCN(c2ccc(-c3cc(F)c4c(c3)C(=O)N(C(C(=O)Nc3nccs3)c3ncn5c3CCC5)C4)cc2)CC1 (stereo not shown) [GT-07384, 2-(6,7-dihydro-5H-pyrrolo[1,2-c]imidazol-1-yl)-2-(6-(4-(4-(((5-(2,4-dioxotetrahydropyrimidin-1(2H)-yl)pyridin-3-yl)methyl)(methyl)amino)piperidin-1-yl)phenyl)-4-fluoro-1-oxoisoindolin-2-yl)-N-(thiazol-2-yl)acetamide]	< 500
O=C1CCN(c2ccc(CN3CCN(c4ccc(-c5cc(F)c6c(c5)C(=O)N(C(C(=O)Nc5nccs5)c5ncn7c5CCC7)C6)cc4)CC3)nc2)C(=O)N1 (stereo not shown) [GT-06229, 2-(6,7-dihydro-5H-pyrrolo[1,2-c]imidazol-1-yl)-2-(6-(4-(4-((5-(2,4-dioxotetrahydropyrimidin-1(2H)-yl)pyridin-2-yl)methyl)piperazin-1-yl)phenyl)-4-fluoro-1-oxoisoindolin-2-yl)-N-(thiazol-2-yl)acetamide]	500 to 1000
CCc1cc2c(cc1N1CCN(Cc3ccc(N4CCC(=O)NC4=O)cn3)CC1)C(C)(C)c1[nH]c3cc(C#N)ccc3c1C2=O [GT-07326, 8-(4-((5-(2,4-dioxotetrahydropyrimidin-1(2H)-yl)pyridin-2-yl)methyl)piperazin-1-yl)-9-ethyl-6,6-dimethyl-11-oxo-6,11-dihydro-5H-benzo[b]carbazole-3-carbonitrile]	1000 to 1900
CCc1cc2c(cc1N1CCC(N3CCN(Cc4cccc(NC5CCC(=O)NC5=O)c4)CC3)CC1)C(C)(C)c1[nH]c3cc(C#N)ccc3c1C2=O (stereo not shown) [GT-07313, 8-(4-(4-(3-((2,6-dioxopiperidin-3-yl)amino)benzyl)piperazin-1-yl)piperidin-1-yl)-9-ethyl-6,6-dimethyl-11-oxo-6,11-dihydro-5H-benzo[b]carbazole-3-carbonitrile]	1000 to 1900
O=C1CCC(c2ccc(CN3CCN(C4CCN(c5ccc(-c6cc(F)c7c(c6)C(=O)N(C(C(=O)Nc6nccs6)c6ncn8c6CCC8)C7)cc5)CC4)CC3)cc2)C(=O)N1 (stereo not shown) [GT-06243, 2-(6,7-dihydro-5H-pyrrolo[1,2-c]imidazol-1-yl)-2-(6-(4-(4-(4-(4-(2,6-dioxopiperidin-3-yl)benzyl)piperazin-1-yl)piperidin-1-yl)phenyl)-4-fluoro-1-oxoisoindolin-2-yl)-N-(thiazol-2-yl)acetamide]	< 500
COc1cc(N2CCC(N(C)Cc3cncc(C4CCC(=O)NC4=O)c3)CC2)ccc1Nc1ncc(Cl)c(Nc2ccccc2P(C)(C)=O)n1 (stereo not shown) [GT-07699, 3-(5-(((1-(4-((5-chloro-4-((2-(dimethylphosphoryl)phenyl)amino)pyrimidin-2-yl)amino)-3-methoxyphenyl)piperidin-4-yl)(methyl)amino)methyl)pyridin-3-yl)piperidine-2,6-dione]	500 to 1000
COc1cc(N2CCC(N3CCN(Cc4ccc(C5CCC(=O)NC5=O)cn4)CC3)CC2)ccc1Nc1ncc(Cl)c(Nc2ccccc2P(C)(C)=O)n1 (stereo not shown) [GT-07613, 3-(6-((4-(1-(4-((5-chloro-4-((2-(dimethylphosphoryl)phenyl)amino)pyrimidin-2-yl)amino)-3-methoxyphenyl)piperidin-4-yl)piperazin-1-yl)methyl)pyridin-3-yl)piperidine-2,6-dione]	500 to 1000
CN(Cc1ccnc(C2CCC(=O)NC2=O)c1)C1CCN(c2ccc(-c3cc(F)c4c(c3)C(=O)N(C(C(=O)Nc3nccs3)c3ncn5c3CCC5)C4)cc2)CC1 (stereo not shown) [GT-07473, 2-(6,7-dihydro-5H-pyrrolo[1,2-c]imidazol-1-yl)-2-(6-(4-(4-(((2-(2,6-dioxopiperidin-3-yl)pyridin-4-yl)methyl)(methyl)amino)piperidin-1-yl)phenyl)-4-fluoro-1-oxoisoindolin-2-yl)-N-(thiazol-2-yl)acetamide]	500 to 1000

Second part, the compound after the results:

IC50 [nM]	Compound
< 500	O=C1CCN(c2cncc(CN3CCN(c4ccc(-c5cc(F)c6c(c5)C(=O)N(C(C(=O)Nc5nccs5)c5ncn7c5CCC7)C6)cc4)CC3)c2)C(=O)N1 (stereo not shown) [GT-07380, 2-(6,7-dihydro-5H-pyrrolo[1,2-c]imidazol-1-yl)-2-(6-(4-(4-((5-(2,4-dioxotetrahydropyrimidin-1(2H)-yl)pyridin-3-yl)methyl)piperazin-1-yl)phenyl)-4-fluoro-1-oxoisoindolin-2-yl)-N-(thiazol-2-yl)acetamide]
500 to 1000	O=C1CCN(c2cccc(CN3CCC(n4cc(NC(=O)c5cnn6ccc(N7C[C@H]8C[C@@H]7CO8)nc56)c(C(F)F)n4)CC3)c2)C(=O)N1 [GT-05051, 5-((1R,4R)-2-oxa-5-azabicyclo[2.2.1]heptan-5-yl)-N-(3-(difluoromethyl)-1-(1-(3-(2,4-dioxotetrahydropyrimidin-1(2H)-yl)benzyl)piperidin-4-yl)-1H-pyrazol-4-yl)pyrazolo[1,5-a]pyrimidine-3-carboxamide]
1000 to 1900	COc1cc2nn(C3CCN(Cc4ccc(N5CCC(=O)NC5=O)c(F)c4)CC3)cc2cc1NC(=O)c1cccc(C(F)(F)F)c1 [GT-04751, N-(2-(1-(4-(2,4-dioxotetrahydropyrimidin-1(2H)-yl)-3-fluorobenzyl)piperidin-4-yl)-6-methoxy-2H-indazol-5-yl)-3-(trifluoromethyl)benzamide]
500 to 1000	O=C1CCC(Nc2cccc(CN3CCN(C4CCN(c5ccc(-c6cc(F)c7c(c6)C(=O)N(C(C(=O)Nc6nccs6)c6ncn8c6CCC8)C7)cc5)CC4)CC3)c2)C(=O)N1 (stereo not shown) [GT-06247, 2-(6,7-dihydro-5H-pyrrolo[1,2-c]imidazol-1-yl)-2-(6-(4-(4-(4-(3-((2,6-dioxopiperidin-3-yl)amino)benzyl)piperazin-1-yl)piperidin-1-yl)phenyl)-4-fluoro-1-oxoisoindolin-2-yl)-N-(thiazol-2-yl)acetamide]
500 to 1000	O=C1CCN(c2cccc(CN3CCN(Cc4ccc5c(c4)nc(NC(=O)c4cccc(C(F)(F)F)c4)n5[C@H]4CC[C@@H](CO)CC4)CC3)c2)C(=O)N1 [GT-04977, N-(5-((4-(3-(2,4-dioxotetrahydropyrimidin-1(2H)-yl)benzyl)piperazin-1-yl)methyl)-1-((1s,4s)-4-(hydroxymethyl)cyclohexyl)-1H-benzo[d]imidazol-2-yl)-3-(trifluoromethyl)benzamide]
< 500	O=C1CCN(c2ccc(CN3CCN(C4CCN(c5ccc(-c6cc(F)c7c(c6)C(=O)N(C(C(=O)Nc6nccs6)c6ncn8c6CCC8)C7)cc5)CC4)CC3)nc2)C(=O)N1 (stereo not shown) [GT-06246, 2-(6,7-dihydro-5H-pyrrolo[1,2-c]imidazol-1-yl)-2-(6-(4-(4-(4-((5-(2,4-dioxotetrahydropyrimidin-1(2H)-yl)pyridin-2-yl)methyl)piperazin-1-yl)piperidin-1-yl)phenyl)-4-fluoro-1-oxoisoindolin-2-yl)-N-(thiazol-2-yl)acetamide]
1000 to 1900	CC(=O)c1c(C)c2cnc(Nc3ccc(N4CCN(Cc5cccc(N6CCC(=O)NC6=O)c5)CC4)cn3)nc2n(C2CCCC2)c1=O [GT-06577, 1-(3-((4-(6-((6-acetyl-8-cyclopentyl-5-methyl-7-oxo-7,8-dihydropyrido[2,3-d]pyrimidin-2-yl)amino)pyridin-3-yl)piperazin-1-yl)methyl)phenyl)dihydropyrimidine-2,4(1H,3H)-dione]
1000 to 1900	Nc1nc(Nc2ccc(S(=O)(=O)N3CCN(Cc4ccc(N5CCC(=O)NC5=O)cc4)CC3)cc2)nn1C(=O)c1c(F)cccc1F [GT-06751, 1-(4-((4-((4-((5-amino-1-(2,6-difluorobenzoyl)-1H-1,2,4-triazol-3-yl)amino)phenyl)sulfonyl)piperazin-1-yl)methyl)phenyl)dihydropyrimidine-2,4(1H,3H)-dione]
